Columns and labels:
[1] = target: T1, Human GPR120 short form (Homo sapiens, UniProt Q5NUL3); assay: Human GPR120 calcium flux assay, Procedure Calcium B (4200 cells/well); type: cell-based
T1 construct: expressed in transfected cells
T1 sequence (Q5NUL3 1-361): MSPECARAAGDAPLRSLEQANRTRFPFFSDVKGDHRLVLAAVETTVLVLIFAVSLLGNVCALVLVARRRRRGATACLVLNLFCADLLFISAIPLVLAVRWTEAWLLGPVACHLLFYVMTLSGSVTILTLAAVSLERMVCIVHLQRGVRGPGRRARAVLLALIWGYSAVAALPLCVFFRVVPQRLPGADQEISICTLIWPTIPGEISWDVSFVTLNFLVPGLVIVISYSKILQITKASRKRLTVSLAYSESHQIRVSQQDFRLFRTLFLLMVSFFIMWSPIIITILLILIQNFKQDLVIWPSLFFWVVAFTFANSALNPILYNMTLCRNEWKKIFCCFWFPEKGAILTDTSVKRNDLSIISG
Method: Human GPR120 in Calcium Flux Assay
These cells are first loaded with the Ca^+2 sensitive dye, Fluo-4 NW. Upon stimulation, intracellular released Ca^+2 can bind to the dye and alter its fluorescence intensity. This increase in fluorescence signal, and thus the flux in intracellular [Ca^2+], is detected and quantitated by fluorescence imaging using a FLIPR reader. The effect of the agonist is measured as a function of concentration and used to calculate an EC50 based upon a response curve.
In this procedure 4200 cells/well were employed.
A Human GPR120 clone (Genbank accession number NM_001195755.1) was placed into the pcDNA3.1 mammalian expression vector carrying the neomycin resistance gene. A stable mammalian cell was generated by placing the above clone into a HEK293 background. […] Cells were split 2 times a week to keep the cells in the log-phase growth. […]
The assay was performed on a FLIPR plate reader using the following parameters. Baseline was read for 10 seconds at 1 sec intervals. The program was set to transfer 10 μL of ligand from compound plate to cell plate after baseline reading. Aspiration was executed at: 10 μL/sec speed, 4.6 μL height, Dispensing was executed at: 30 μL/sec speed, 45 μL height. After compound addition, each well was read for 300 sec, with measurements collected at 1 sec intervals.
The kinetic data from the FLIPR was based upon a 5 minute window for data collection. The fluorescence of each sample well was used for individual calculations of a normalized RFU value, which was defined as maximum response minus the minimum response. The normalized fluorescence reading (RFU) was calculated as follows: RFU=Fmax−Fmin
The Fitting Equation was: Y=Bottom+(Top-Bottom)/(1+10^((Log EC50−X)*HillSlope)), where X is the log of the concentration and Y is the response.

[2] = target: T2, human GPR40 (Homo sapiens, UniProt O14842); assay: GPR40 calcium flux assay, human GPR40; type: cell-based; conditions: HEK293 cells stably expressing GPR40; table does not say human or rat
T2 construct: expressed in transfected cells
Method: Compounds were tested in a calcium flux assay using transfected HEK293 cells stably expressing either human GPR40 or rat GPR40. Human GPR40 expressing cells were cultured in DMEM−High Glucose media supplemented with 10% fetal bovine serum, 1×L-Glutamine, 1×Penicillin/Streptomycin and 500 μg/mL G418. Rat GPR40 expressing cells were cultured in DMEM−High Glucose media supplemented with 10% fetal bovine serum and 1 μg/mL puromycin. Cells were plated into poly-D-lysine coated 384-well plates and cultured overnight in a 37° C. humidified tissue culture incubator under 5% CO2/[…] atmosphere.
On the day of the experiment, the culture media was replaced with assay buffer (HBSS, 20 mM HEPES, 0.1% BSA) and the cells incubated at 37° C. for 1 h. Calcium-sensitive fluorescent dye (Fluo 8 No-Wash Calcium Dye, ABD Bioquest) was then added and the cells incubated for another 30 min at 37° C. followed by 15 min at room temperature while protected from the light. The cell plate and a plate of diluted compounds of Formula (I) were loaded into a fluorescent plate reader that added compounds onto the cells while measuring the fluorescence intensity of each well. The plate reader recorded fluorescence intensity at 1 second intervals for 8 min and provided the data for analysis in an Excel format. EC50 values were calculated using Prism (GraphPad) software.

T2 sequence (O14842 whole entry): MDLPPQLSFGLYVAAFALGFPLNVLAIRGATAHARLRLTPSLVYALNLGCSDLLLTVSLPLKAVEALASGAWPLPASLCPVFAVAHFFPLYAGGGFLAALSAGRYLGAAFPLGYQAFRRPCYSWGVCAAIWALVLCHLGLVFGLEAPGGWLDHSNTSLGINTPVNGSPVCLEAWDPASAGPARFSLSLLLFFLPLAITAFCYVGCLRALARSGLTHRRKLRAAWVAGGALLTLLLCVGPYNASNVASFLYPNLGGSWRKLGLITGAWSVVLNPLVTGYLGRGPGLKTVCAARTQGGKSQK

EC50 [1] [nM]	EC50 [2] [nM]	SMILES
> 5000	> 5000	Cc1ccc(C2=C(COc3c(F)cc(CCC(=O)O)cc3F)CCC2)o1 [Compound 212, 3-[3,5-difluoro-4-[[2-(5-methyl-2-furyl)cyclopenten-1-yl]methoxy]phenyl]Propanoic Acid]
776	> 5000	Cc1ccc(C2=C(COc3ccc(CCC(=O)O)cc3)CCC2)c(O)c1 [Compound 213]
1120	> 5000	CCOc1ccc(C2=C(COc3ccc(CCC(=O)O)c(C)c3C)CCC2)cn1 [Compound 219, 3-[4-[[2-(6-ethoxy-3-pyridyl)cyclopenten-1-yl]methoxy]-2,3-dimethyl-phenyl]Propanoic Acid]
1870	> 5000	O=C(O)CCc1ccc(OCC2=C(C3=CCCCC3)CCC2)cc1 [Compound 230, 3-[4-[[2-(cyclohexen-1-yl)cyclopenten-1-yl]methoxy]phenyl]Propanoic Acid]
> 5000	> 5000	Cc1cc(CCC(=O)O)ccc1OCC1=C(c2ccco2)CC(F)(F)C1 [Compound 232, 3-[4-[[4,4-difluoro-2-(2-furyl)cyclopenten-1-yl]methoxy]-3-methyl-phenyl]Propanoic Acid]
1270	> 5000	Cc1cc(CCC(=O)O)cc(Cl)c1OCC1=C(c2ccc(F)cc2)CCC1 [Compound 236, 3-[3-chloro-4-[[2-(4-fluorophenyl)cyclopenten-1-yl]methoxy]-5-methyl-phenyl]Propanoic Acid]
403	> 5000	Cc1c(CCC(=O)O)ccc(OCC2=C(C3=CCOCC3)CCC2)c1C [Compound 239, 3-[4-[[2-(3,6-dihydro-2H-pyran-4-yl)cyclopenten-1-yl]methoxy]-2,3-dimethyl-phenyl]Propanoic Acid]
388	187	O=C(O)CCc1ccc(OCC2=C(c3ccc(F)cc3)CCC2)cc1C(F)(F)F [Compound 240, 3-[4-[[2-(4-fluorophenyl)cyclopenten-1-yl]methoxy]-2-(trifluoromethyl)phenyl]Propanoic Acid]
146	836	O=C(O)CCc1ccc(OCC2=C(c3ccccc3)CC(F)(F)C2)cc1Cl [Compound 242, 3-[2-chloro-4-[(4,4-difluoro-2-phenyl-cyclopenten-1-yl)methoxy]phenyl]Propanoic Acid]
> 5000	90	Cc1cc(Cl)ccc1C1=C(COc2ccc(CCC(=O)O)c(C(F)(F)F)c2)CCC1 [Compound 243, 3-[4-[[2-(4-chloro-2-methyl-phenyl)cyclopenten-1-yl]methoxy]-2-(trifluoromethyl)phenyl]Propanoic Acid]
2240	799	Cc1ccc(C2=C(COc3cc(C)c(CCC(=O)O)cc3F)CCC2)c(C)c1 [Compound 244, 3-[4-[[2-(2,4-dimethylphenyl)cyclopenten-1-yl]methoxy]-5-fluoro-2-methyl-phenyl]Propanoic Acid]
3060	388	Cc1ccc(C2=C(COc3ccc(CCC(=O)O)c(C(F)(F)F)c3)CCC2)c(C)c1 [Compound 247, 3-[4-[[2-(2,4-dimethylphenyl)cyclopenten-1-yl]methoxy]-2-(trifluoromethyl)phenyl]Propanoic Acid]
361	188	O=C(O)CCc1ccc(OCC2=C(c3ccc(Cl)cc3)CC(F)(F)C2)cc1C(F)(F)F [Compound 248, 3-[4-[[2-(4-chlorophenyl)-4,4-difluoro-cyclopenten-1-yl]methoxy]-2-(trifluoromethyl)phenyl]Propanoic Acid]
173	463	Cc1ccc(C2=C(COc3ccc(CCC(=O)O)c(C(F)(F)F)c3)CC(F)(F)C2)cc1 [Compound 249, 3-[4-[[4,4-difluoro-2-(p-tolyl)cyclopenten-1-yl]methoxy]-2-(trifluoromethyl)phenyl]Propanoic Acid]

More lines, now with the values behind:

SMILES	EC50 [1] [nM]	EC50 [2] [nM]
O=C(O)CCc1cc(F)c(OCC2=C(c3ccco3)CCC2)c(F)c1 [Compound 209, 3-[3,5-difluoro-4-[[2-(2-furyl)cyclopenten-1-yl]methoxy]phenyl]Propanoic Acid]	4640	> 5000
Cc1ccc(C2=C(COc3ccc(CCC(=O)O)cc3C)CCC2)o1 [Compound 211, 3-[3-methyl-4-[[2-(5-methyl-2-furyl)cyclopenten-1-yl]methoxy]phenyl]Propanoic Acid]	304	> 5000
COc1ccc(C2=C(COc3ccc(CCC(=O)O)cc3C)CCC2)cn1 [Compound 218, 3-[4-[[2-(6-methoxy-3-pyridyl)cyclopenten-1-yl]methoxy]-3-methyl-phenyl]Propanoic Acid]	89	> 5000
COc1ccc(C2=C(COc3ccc(CCC(=O)O)c(C)c3C)CCC2)cn1 [Compound 220, 3-[4-[[2-(6-methoxy-3-pyridyl)cyclopenten-1-yl]methoxy]-2,3-dimethyl-phenyl]Propanoic Acid]	160	> 5000
COc1ccc(C2=C(COc3c(F)cc(CCC(=O)O)cc3F)CCC2)cn1 [Compound 221, 3-[3,5-difluoro-4-[[2-(6-methoxy-3-pyridyl)cyclopenten-1-yl]methoxy]phenyl]Propanoic Acid]	160	> 5000
Cc1cc(CCC(=O)O)cc(F)c1OCC1=C(c2ccc(F)cc2)CCC1 [Compound 227, 3-[3-fluoro-4-[[2-(4-fluorophenyl)cyclopenten-1-yl]methoxy]-5-methyl-phenyl]Propanoic Acid]	356	> 5000
Cc1cc(CCC(=O)O)cc(Cl)c1OCC1=C(c2ccc(F)cc2)CC(F)(F)C1 [Compound 229, 3-[3-chloro-4-[[4,4-difluoro-2-(4-fluorophenyl)cyclopenten-1-yl]methoxy]-5-methyl-phenyl]Propanoic Acid]	1050	> 5000
CCCC#CC1=C(COc2ccc(CCC(=O)O)cc2)CCC1 [Compound 233]	752	2930
Cc1ccc(C2=C(COc3ccc(CCC(=O)O)cc3)CCC2)cc1O [Compound 234]	1140	> 5000
O=C(O)CCc1cc(Cl)c(OCC2=C(c3ccc(F)cc3)CCC2)c(Cl)c1 [Compound 235, 3-[3,5-dichloro-4-[[2-(4-fluorophenyl)cyclopenten-1-yl]methoxy]phenyl]Propanoic Acid]	668	> 5000
N#Cc1cc(OCC2=C(c3ccc(F)cc3)CCC2)ccc1CCC(=O)O [Compound 237, 3-[2-cyano-4-[[2-(4-fluorophenyl)cyclopenten-1-yl]methoxy]phenyl]Propanoic Acid]	> 5000	923
Cc1cc(CCC(=O)O)ccc1OCC1=C(C2=CCOCC2)CCC1 [Compound 238, 3-[4-[[2-(3,6-dihydro-2H-pyran-4-yl)cyclopenten-1-yl]methoxy]-3-methyl-phenyl]Propanoic Acid]	435	> 5000
O=C(O)CCc1ccc(OCC2=C(c3ccccc3)CC(F)(F)C2)cc1C(F)(F)F [Compound 241]	173	222
Cc1ccc(C2=C(COc3ccc(CCC(=O)O)cc3)CCC2)c(C)c1 [Compound 245, 3-[4-[[2-(2,4-dimethylphenyl)cyclopenten-1-yl]methoxy]phenyl]Propanoic Acid]	2000	1910
Cc1ccc(C2=C(COc3ccc(CCC(=O)O)c(Cl)c3)CCC2)c(C)c1 [Compound 246, 3-[2-chloro-4-[[2-(2,4-dimethylphenyl)cyclopenten-1-yl]methoxy]phenyl]Propanoic Acid]	3130	358

From US11230526B1, “Cylcoalkenyl derivatives useful as agonists of the GPR120 and/or GPR40 receptors” (Janssen Pharmaceutica NV, priority 2018, dated 2022)
